Laboratory results: patent US9187434B2, “Substituted 1,5-benzodiazepinones compounds” (BRISTOL-MYERS SQUIBB COMPANY, priority 2012, dated 2015)

tested on: not listed separately; assay: Human metabolic stability half-life assay; assay type: in vitro ADME; settings: liver microsomes, pH 7.4, human liver microsomes, 0.5 μM compound, NADPH, 45-minute time course, read-out: HLM t1/2
From the text: Metabolic Stability Half-Life Panel

| SMILES | half-life at 0.5 μM [min] |
| --- | --- |
| NC(=O)[C@@H](CCC(F)(F)F)[C@@H](CCC(F)(F)F)C(=O)N[C@H]1CN(c2cccc(Cl)c2)c2ccccc2NC1=O [Example 3, (2R,3S)—N-((3S)-1-(3-Chlorophenyl)-4-oxo-2,3,4,5-tetrahydro-1H-1,5-benzodiazepin-3-yl)-2,3-bis(3,3,3-trifluoropropyl)succinamide] | ≥ 31 |
| NC(=O)[C@@H](CCC(F)(F)F)[C@@H](CCC(F)(F)F)C(=O)N[C@H]1CN(c2cccc(C3CC3)c2)c2ccccc2NC1=O [Example 5, (2R,3S)—N-((3S)-1-(3-Cyclopropylphenyl)-4-oxo-2,3,4,5-tetrahydro-1H-1,5-benzodiazepin-3-yl)-2,3-bis(3,3,3-trifluoropropyl)succinamide] | ≥ 31 |
| NC(=O)[C@@H](CCC(F)(F)F)[C@@H](CCC(F)(F)F)C(=O)N[C@H]1CN(c2cccc(Cl)c2)c2cccc(C3CC3)c2NC1=O [Example 7, (2R,3S)—N-((3S)-1-(3-Chlorophenyl)-6-cyclopropyl-4-oxo-2,3,4,5-tetrahydro-1H-1,5-benzodiazepin-3-yl)-2,3-bis(3,3,3-trifluoropropyl)succinamide] | ≥ 31 |
| NC(=O)[C@@H](CCC(F)(F)F)[C@@H](CCC(F)(F)F)C(=O)N[C@H]1CN(c2cccc(Cl)c2)c2cccc(Cl)c2NC1=O [Example 31, (2R,3S)—N-((3S)-6-Chloro-1-(3-chlorophenyl)-4-oxo-2,3,4,5-tetrahydro-1H-1,5-benzodiazepin-3-yl)-2,3-bis(3,3,3-trifluoropropyl)succinamide] | ≥ 31 |
| NC(=O)[C@@H](CCC(F)(F)F)[C@@H](CCC(F)(F)F)C(=O)N[C@H]1CN(c2ccccn2)c2cccc(Cl)c2NC1=O [Example 33, (2R,3S)—N-((3S)-6-Chloro-4-oxo-1-(2-pyridinyl)-2,3,4,5-tetrahydro-1H-1,5-benzodiazepin-3-yl)-2,3-bis(3,3,3-trifluoropropyl)succinamide] | ≥ 31 |
| NC(=O)[C@@H](c1ccccc1)[C@@H](CCC(F)(F)F)C(=O)N[C@H]1CN(c2cccc(C(F)(F)F)n2)c2cccc(Cl)c2NC1=O [Example 34, (2R,3R)—N-((3S)-6-Chloro-4-oxo-1-(6-(trifluoromethyl)-2-pyridinyl)-2,3,4,5-tetrahydro-1H-1,5-benzodiazepin-3-yl)-3-phenyl-2-(3,3,3-trifluoropropyl)succinamide] | ≥ 31 |
| NC(=O)[C@@H](CCC(F)(F)F)[C@@H](CCC(F)(F)F)C(=O)N[C@H]1CN(c2ccccc2)c2ccc(F)cc2NC1=O [Example 37, (2R,3S)—N-((3S)-7-Fluoro-4-oxo-1-phenyl-2,3,4,5-tetrahydro-1H-1,5-benzodiazepin-3-yl)-2,3-bis(3,3,3-trifluoropropyl)succinamide] | ≥ 31 |

Further lines, results first:

| half-life at 0.5 μM [min] | SMILES |
| --- | --- |
| ≥ 31 | NC(=O)[C@@H](CCC(F)(F)F)[C@@H](CCC(F)(F)F)C(=O)N[C@H]1CN(c2cccc(C3CC3)c2)c2cccc(Cl)c2NC1=O [Example 1, (2R,3S)—N-((3S)-6-Chloro-1-(3-cyclopropylphenyl)-4-oxo-2,3,4,5-tetrahydro-1H-1,5-benzodiazepin-3-yl)-2,3-bis(3,3,3-trifluoropropyl)succinamide] |
| ≥ 31 | NC(=O)[C@@H](CC1CC1)[C@@H](CCC(F)(F)F)C(=O)N[C@H]1CN(c2cccc(C3CC3)c2)c2cccc(F)c2NC1=O [Example 15, (2R,3S)-3-(Cyclopropylmethyl)-N-((3S)-1-(3-cyclopropylphenyl)-6-fluoro-4-oxo-2,3,4,5-tetrahydro-1H-1,5-benzodiazepin-3-yl)-2-(3,3,3-trifluoropropyl)succinamide] |
| ≥ 31 | N#Cc1cccc(N2C[C@H](NC(=O)[C@H](CCC(F)(F)F)[C@H](CC3CC3)C(N)=O)C(=O)Nc3c(Cl)cccc32)c1 [Example 25, (2R,3S)—N-((3S)-6-Chloro-1-(3-cyanophenyl)-4-oxo-2,3,4,5-tetrahydro-1H-1,5-benzodiazepin-3-yl)-3-(cyclopropylmethyl)-2-(3,3,3-trifluoropropyl)succinamide] |
| ≥ 31 | N#Cc1ccccc1N1C[C@H](NC(=O)[C@H](CCC(F)(F)F)[C@H](CC2CC2)C(N)=O)C(=O)Nc2c(Cl)cccc21 [Example 26, (2R,3S)—N-((3S)-6-Chloro-1-(2-cyanophenyl)-4-oxo-2,3,4,5-tetrahydro-1H-1,5-benzodiazepin-3-yl)-3-(cyclopropylmethyl)-2-(3,3,3-trifluoropropyl)succinamide] |
| ≥ 31 | N#Cc1cc(F)cc(N2C[C@H](NC(=O)[C@H](CCC(F)(F)F)[C@H](CC3CC3)C(N)=O)C(=O)Nc3c(Cl)cccc32)c1 [Example 28, (2R,3S)—N-((3S)-6-Chloro-1-(3-cyano-5-fluorophenyl)-4-oxo-2,3,4,5-tetrahydro-1H-1,5-benzodiazepin-3-yl)-3-(cyclopropylmethyl)-2-(3,3,3-trifluoropropyl)succinamide] |
| ≥ 31 | NC(=O)[C@@H](CC1CC1)[C@@H](CCC(F)(F)F)C(=O)N[C@H]1CN(c2cccc(C3CC3)c2)c2cccc(Cl)c2NC1=O [Example 29, (2R,3S)—N-((3S)-6-Chloro-1-(3-cyclopropylphenyl)-4-oxo-2,3,4,5-tetrahydro-1H-1,5-benzodiazepin-3-yl)-3-(cyclopropylmethyl)-2-(3,3,3-trifluoropropyl)succinamide] |

tested on: human Notch 1; assay: Notch-CBF1 Transactivation Assay (Notch 1); assay type: cell-based; settings: HeLa cells co-transfected with truncated Notch 1 and CBF1 luciferase reporter; 18 hours incubation
From the text: (§1) Notch-CBF1 Transactivation Assay
(§2) Table 12 denotes respective DNA quantity for the transfections.
(§3) Duplicates were used for each sample.

| SMILES | IC50 [nM] |
| --- | --- |
| NC(=O)[C@@H](CCC(F)(F)F)[C@@H](CCC(F)(F)F)C(=O)N[C@H]1CN(c2ccc(Cl)cc2)c2ccccc2NC1=O [Example 4, (2R,3S)—N-((3S)-1-(4-Chlorophenyl)-4-oxo-2,3,4,5-tetrahydro-1H-1,5-benzodiazepin-3-yl)-2,3-bis(3,3,3-trifluoropropyl)succinamide] | 17.4 |
| NC(=O)[C@@H](CCC(F)(F)F)[C@@H](CCC(F)(F)F)C(=O)N[C@H]1CN(c2ccc(F)cc2)c2ccccc2NC1=O [Example 6, (2R,3S)—N-((3S)-1-(4-Fluorophenyl)-4-oxo-2,3,4,5-tetrahydro-1H-1,5-benzodiazepin-3-yl)-2,3-bis(3,3,3-trifluoropropyl)succinamide] | 13.9 |
| N#Cc1cccc(N2C[C@H](NC(=O)[C@H](CCC(F)(F)F)[C@H](CCC(F)(F)F)C(N)=O)C(=O)Nc3c(C(F)F)cccc32)c1 [Example 10, (2R,3S)—N-((3S)-1-(3-Cyanophenyl)-6-(difluoromethyl)-4-oxo-2,3,4,5-tetrahydro-1H-1,5-benzodiazepin-3-yl)-2,3-bis(3,3,3-trifluoropropyl)succinamide] | 12 |
| N#Cc1cccc(N2C[C@H](NC(=O)[C@H](CCC(F)(F)F)[C@H](CCC(F)(F)F)C(N)=O)C(=O)Nc3c(F)cccc32)c1 [Example 17, (2R,3S)—N-((3S)-1-(3-Cyanophenyl)-6-fluoro-4-oxo-2,3,4,5-tetrahydro-1H-1,5-benzodiazepin-3-yl)-2,3-bis(3,3,3-trifluoropropyl)succinamide] | 17.6 |
| N#Cc1cccc(N2C[C@H](NC(=O)[C@H](CCC(F)(F)F)[C@H](CCC(F)(F)F)C(N)=O)C(=O)Nc3c(Cl)cccc32)c1 [Example 23, (2R,3S)—N-((3S)-6-Chloro-1-(3-cyanophenyl)-4-oxo-2,3,4,5-tetrahydro-1H-1,5-benzodiazepin-3-yl)-2,3-bis(3,3,3-trifluoropropyl)succinamide] | 11.6 |

More lines, now with the values ahead:

| IC50 [nM] | SMILES |
| --- | --- |
| 14.6 | N#Cc1cccc(N2C[C@H](NC(=O)[C@H](CCC(F)(F)F)[C@H](CC3CC3)C(N)=O)C(=O)Nc3c(Cl)cccc32)c1 [Example 25, (2R,3S)—N-((3S)-6-Chloro-1-(3-cyanophenyl)-4-oxo-2,3,4,5-tetrahydro-1H-1,5-benzodiazepin-3-yl)-3-(cyclopropylmethyl)-2-(3,3,3-trifluoropropyl)succinamide] |
| 22.5 | N#Cc1ccccc1N1C[C@H](NC(=O)[C@H](CCC(F)(F)F)[C@H](CC2CC2)C(N)=O)C(=O)Nc2c(Cl)cccc21 [Example 26, (2R,3S)—N-((3S)-6-Chloro-1-(2-cyanophenyl)-4-oxo-2,3,4,5-tetrahydro-1H-1,5-benzodiazepin-3-yl)-3-(cyclopropylmethyl)-2-(3,3,3-trifluoropropyl)succinamide] |

tested on: human Notch 3; assay: Notch-CBF1 Transactivation Assay (Notch 3); assay type: cell-based; settings: HeLa cells co-transfected with truncated Notch 3 and CBF1 luciferase reporter; 18 hours incubation
From the text: as §1, §2, §3

| IC50 [nM] | SMILES |
| --- | --- |
| 46.2 | N#Cc1ccccc1N1C[C@H](NC(=O)[C@H](CCC(F)(F)F)[C@H](CC2CC2)C(N)=O)C(=O)Nc2c(Cl)cccc21 [Example 26, (2R,3S)—N-((3S)-6-Chloro-1-(2-cyanophenyl)-4-oxo-2,3,4,5-tetrahydro-1H-1,5-benzodiazepin-3-yl)-3-(cyclopropylmethyl)-2-(3,3,3-trifluoropropyl)succinamide] |
